# Test results taken from PubChem BioAssay (NCI).
#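 These data come from cells grown in 96-well plates and exposed to compound for 48 hours at five concentrations. Here, GI50 denotes the concentration required for 50% inhibition of growth. TGI marks complete inhibition of growth.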 Where a SMILES comes first, the peptide text is derived from it. The star is where a group is joined. OSu = O=C1CCC(=O)N1O*
# Legend:
# Assay in all cases: NCI anticancer screen, dose series, 48 h
# A498 renal = system: A498 renal
# COLO 205 colon = system: COLO 205 colon
# MALME-3M melanoma = system: MALME-3M melanoma
# NCI-H460 lung = system: NCI-H460 lung
# NCI/ADR-RES ovarian = system: NCI/ADR-RES ovarian
# OVCAR-5 ovarian = system: OVCAR-5 ovarian
# SF-295 CNS = system: SF-295 CNS
# TK-10 renal = system: TK-10 renal
# UACC-257 melanoma = system: UACC-257 melanoma
# UACC-62 melanoma = system: UACC-62 melanoma
SMILES,TGI (A498 renal) [µM],TGI (COLO 205 colon) [µM],TGI (MALME-3M melanoma) [µM],TGI (NCI-H460 lung) [µM],TGI (NCI/ADR-RES ovarian) [µM],TGI (OVCAR-5 ovarian) [µM],TGI (SF-295 CNS) [µM],TGI (TK-10 renal) [µM],TGI (UACC-257 melanoma) [µM],TGI (UACC-62 melanoma) [µM],GI50 (A498 renal) [µM],GI50 (SF-295 CNS) [µM],GI50 (COLO 205 colon) [µM],GI50 (MALME-3M melanoma) [µM],GI50 (NCI/ADR-RES ovarian) [µM],GI50 (OVCAR-5 ovarian) [µM],GI50 (TK-10 renal) [µM],GI50 (UACC-257 melanoma) [µM],GI50 (UACC-62 melanoma) [µM]
COc1ccc2oc3c(C)cc4c(OC)nnc(OC)c4c3c2c1,> 100,> 100,> 100,> 100,> 100,> 100,> 100,91.9,> 100,> 100,–,–,–,–,–,–,–,–,–
CCOC(=O)/C(C#N)=C/c1coc2cc(C)cc(C)c2c1=O,> 100,> 100,> 100,> 100,> 100,> 100,> 100,> 100,> 100,> 100,–,–,–,–,–,–,–,–,–
CCOC(=O)c1cc(-c2ccc(OC)cc2)c([N+](=O)[O-])n1C,–,–,> 10,> 10,> 10,> 10,> 10,–,> 10,> 10,–,–,–,–,–,–,–,–,–
CCN(CC)CCCNC(=O)c1cc(-c2nccn2C)nc2ccccc12,> 100,> 100,> 100,> 100,> 100,> 100,–,> 100,> 100,> 100,–,–,–,–,–,–,–,–,–
N#C/C(N)=C(\C#N)NC=NCCO,> 100,> 100,> 100,> 100,> 100,> 100,> 100,> 100,> 100,> 100,–,–,–,–,–,–,–,–,–
CCOC(=O)C12OC(OCC)(CC1(OCC)OCC)C1(CC1)C2=O (stereo not drawn),> 100,> 100,> 100,> 100,> 100,> 100,> 100,> 100,> 100,–,–,–,–,–,–,–,–,–,–
CCCCCCc1cc2cc(-c3cn4ccsc4n3)c(=O)oc2cc1O,> 100,> 100,–,> 100,> 100,> 100,> 100,> 100,> 100,> 50.8,–,–,–,–,–,–,–,–,–
NCCCCC(NC(=O)C(N)Cc1ccc(O)cc1)C(=O)NC(CCCCN)C(=O)NC(CCCCN)C(=O)ON1C(=O)CCC1=O (stereo not drawn) (H-YKKK-OSu; configuration not given here),> 100,> 100,> 100,> 100,–,> 100,–,> 100,> 100,> 100,–,–,–,–,–,–,–,–,–
N#Cc1nc(-c2cnccn2)oc1N,> 100,–,–,–,–,> 100,–,> 100,> 100,> 100,–,–,–,–,–,–,–,–,–
COc1cc(-c2cccs2)sc1-c1cccs1,–,27.3,> 100,> 100,–,> 100,> 100,> 100,> 100,> 100,–,–,–,–,–,–,–,–,–
COCCOCOC(CCCCO)c1cc(C)c(O[Si](C)(C)C(C)(C)C)c(C)c1 (stereo not drawn),26.9,22.3,13.3,20.2,–,26.7,16.3,27.3,15.7,25.4,–,–,–,–,–,–,–,–,–
CON(C)C(=O)C(C)N(Cc1ccccc1)Cc1ccccc1 (stereo not drawn),> 100,–,> 100,> 100,> 100,> 100,> 100,> 100,> 100,> 100,–,–,–,–,–,–,–,–,–
COc1cc2c(/C=C3/C(=O)Nc4cccc(Cl)c43)c(Cl)[nH]c2cc1C,20.7,4.1,–,3.78,3.45,14.8,4.21,3.58,10.2,4.21,–,–,–,–,–,–,–,–,–
CCCC/C=C/C=C/C=C/CCCCCCCC(=O)OCC(COC(=O)CCCCCCC/C=C/C1C=CC(CCCC)C(C(=O)O)C1C(=O)O)OC(=O)CCCCCCC/C=C/C=C/C=C/CCCC (stereo not drawn) (tested in a mixture with another compound),34.4,29.3,35.8,> 100,–,43.1,35.8,37.7,34.9,29.1,–,–,–,–,–,–,–,–,–
Cc1ccc(S[C@@H](C)[C@@](O)(CF)CN(Cc2ccccc2)C(=O)C(F)(F)F)cc1,29.7,–,44.2,36.9,69.5,34.8,–,> 100,56.8,34.8,–,–,–,–,–,–,–,–,–
Cc1cc(OC(=O)Nc2cccc3ccccc23)c(C(C)C)cc1C(=S)Nc1ccccc1,–,39.4,36.8,47.1,52.1,46,36.8,–,50.5,26.5,–,–,–,–,–,–,–,–,–
CCOC(=O)C(=[N+]=[N-])C(=O)CN1C(=O)c2ccccc2C1=O,> 100,> 100,–,> 100,–,> 100,> 100,> 100,> 100,> 100,–,–,–,–,–,–,–,–,–
CSC(=O)c1sc(SC)[n+](-c2ccccc2)c1O,> 100,> 100,56.6,86.3,> 100,49.6,32,40.3,–,29.7,–,–,–,–,–,–,–,–,–
COc1ccc(NC(=S)c2ccc(CN3CCCCC3)s2)cc1,31.5,30.8,37.6,37.4,93.8,34.1,38.1,–,35.6,32.8,–,–,–,–,–,–,–,–,–
Cc1ccc(S(=O)(=O)N2C3C=CC(C3)[C@@H]2C(Cl)(Cl)Cl)cc1 (stereo partly drawn),47.5,38.2,56.1,35.5,44.6,–,35.1,> 100,60.5,35.2,11.8,–,–,–,–,–,–,–,–
COC(=O)[C@]1(C)CCC[C@@]2(C)C1CC[C@@]13C=C(C(C)C)[C@@H](CC1=O)CC23 (stereo partly drawn),–,–,–,> 100,67.5,–,68.3,> 100,62.4,> 100,–,–,–,–,–,–,–,–,–
Cc1ccc2nc(-c3ccccc3)cc(=O)n2c1,–,> 100,> 100,> 100,> 100,> 100,> 100,> 100,–,> 100,–,–,–,–,–,–,–,–,–
O=C1OC(c2ccccc2)=N/C1=C\c1ccc([N+](=O)[O-])cc1,> 100,> 100,–,> 100,55.1,> 100,> 100,> 100,> 100,96,–,–,–,–,–,–,–,–,–
CC1(C)[C@@H](Cn2cc(I)c(=O)[nH]c2=O)CC[C@@]1(C)CO,> 100,> 100,–,–,> 100,> 100,> 100,> 100,> 100,> 100,–,–,–,–,–,–,–,–,–

SMILES,TGI (A498 renal) [µM],TGI (COLO 205 colon) [µM],TGI (MALME-3M melanoma) [µM],TGI (NCI-H460 lung) [µM],TGI (NCI/ADR-RES ovarian) [µM],TGI (OVCAR-5 ovarian) [µM],TGI (SF-295 CNS) [µM],TGI (TK-10 renal) [µM],TGI (UACC-257 melanoma) [µM],TGI (UACC-62 melanoma) [µM],GI50 (A498 renal) [µM],GI50 (SF-295 CNS) [µM],GI50 (COLO 205 colon) [µM],GI50 (MALME-3M melanoma) [µM],GI50 (NCI/ADR-RES ovarian) [µM],GI50 (OVCAR-5 ovarian) [µM],GI50 (TK-10 renal) [µM],GI50 (UACC-257 melanoma) [µM],GI50 (UACC-62 melanoma) [µM]
Nc1nc(Cl)cc(OCC2(CO)CC=CC2)n1,> 100,–,> 100,> 100,> 100,> 100,> 100,> 100,> 100,–,–,–,–,–,–,–,–,–,–
Nc1ncc2c(n1)-c1ccccc1OC2N1CCCCC1 (stereo not drawn),> 100,> 100,–,> 100,> 100,> 100,> 100,> 100,> 100,> 100,–,–,–,–,–,–,–,–,–
Cc1ccc(Nc2nc(NNC(=O)Cc3ccccc3)nc(NNC(=O)c3ccncc3)n2)cc1,> 10,> 10,> 10,> 10,> 10,–,–,> 10,> 10,> 10,–,–,–,–,–,–,–,–,–
COc1cc(S(=O)(=O)Nc2ccc(-c3csc(N4C(=O)CSC4c4cccc(Oc5ccccc5)c4)n3)cc2)ccc1Cl (stereo not drawn),> 100,> 100,> 100,–,> 100,> 100,> 100,–,–,> 100,–,–,–,–,–,–,–,–,–
O=C(Nc1c(O)[nH]c(=S)[nH]c1=O)c1ccccc1,> 100,> 100,> 100,> 100,–,> 100,> 100,> 100,> 100,> 100,–,–,–,–,–,–,–,–,–
O=c1cc(-c2ccc3c(c2)OCO3)[nH]c2cc3c(cc12)OCO3,–,> 100,97.8,> 100,–,–,87.8,> 100,–,> 100,–,29.6,–,–,–,–,–,–,–
N#Cc1cccc(-n2[nH]c(=O)ccc2=O)c1,–,> 100,> 100,> 100,–,> 100,> 100,> 100,> 100,> 100,–,–,–,–,–,–,–,–,–
CC(=O)OCCOCNC(=S)N/N=C/c1ccc([N+](=O)[O-])o1,> 100,42.9,> 100,> 100,–,> 100,> 100,> 100,> 100,> 100,–,–,–,–,–,–,–,–,–
O=C1/C(=C\c2ccc(Cl)cc2Cl)Sc2scc(-c3ccc(O)c(O)c3)[n+]21,–,40.5,–,48.2,35.6,46.3,49.2,38.8,71.3,22.4,–,–,–,–,–,–,–,–,–
COc1cc(C2C(Cl)C(=O)N2n2cnc3ccccc3c2=O)ccc1O (stereo not drawn),–,> 100,> 100,> 100,–,> 100,> 100,> 100,99.6,> 100,–,–,–,–,–,–,–,–,–
Cc1ccc(S(=O)(=O)N2CC2CCCCC=O)cc1 (stereo not drawn),> 100,> 100,> 100,–,> 100,> 100,> 100,> 100,> 100,> 100,–,–,–,–,–,–,–,–,–
COC(=O)c1ccc(Cc2cc(Cc3ccc(C(=O)OC)cc3)cc(Cc3ccc(C(=O)OC)cc3)c2)cc1,> 25,–,> 25,> 25,> 25,> 25,> 25,> 25,> 25,> 25,–,–,–,–,–,–,–,–,–
CCn1cnc2c(=S)nc(N)[nH]c21,–,> 100,> 100,> 100,–,–,> 100,> 100,> 100,> 100,–,–,–,–,–,–,–,–,–
Cc1cn(C2OC(CO[Si](C)(C)C(C)(C)C)C(N(C)O[Si](C)(C)C(C)(C)C)C2[Se]c2ccccc2)c(=O)[nH]c1=O (stereo not drawn),49.5,> 100,29.4,–,58,11.7,26,27.1,–,42.4,–,–,–,–,–,–,–,–,–
CCOC(=O)/C(=C/c1ccc(OC)cc1)N(CC)CC,> 100,> 100,> 100,> 100,–,> 100,> 100,> 100,> 100,> 100,–,–,–,–,–,–,–,–,–
CCCCCCOc1ccc(/C=N/Nc2cc(C)nc3ccc(Cl)cc23)cc1,3.4,3.04,3.44,–,3.7,3.35,3.24,3.32,3.26,3.27,1.77,1.73,1.58,1.91,1.9,1.92,1.89,1.61,1.78
COc1ccc(C2Oc3cc(OC)c(OC)cc3C2CCl)cc1OC (stereo not drawn),> 100,> 100,> 100,> 100,–,> 100,–,> 100,> 100,79.5,–,–,–,–,–,–,–,–,–
CC1=NN(c2nc(N)nc(COc3ccc(N)cc3)n2)C(C)(C)C1,> 100,> 100,–,> 100,> 100,–,> 100,> 100,> 100,> 100,–,–,–,–,–,–,–,–,–
CCNC(=O)c1ccc(C)c(N=NN(C)C)c1,–,–,–,> 100,–,–,> 100,> 100,> 100,> 100,–,–,–,–,–,–,–,–,–
O=C1/C(=C/c2ccco2)NC(=S)N1CN1CCCCC1,> 100,> 100,> 100,–,> 100,> 100,> 100,> 100,–,> 100,–,–,–,–,–,–,–,–,–
Cc1[nH]c(=O)nc2sc(=NC3CCCCC3)n(C3CCCCC3)c(=O)c12,> 100,> 100,> 100,–,> 100,> 100,> 100,> 100,> 100,> 100,–,–,–,–,–,–,–,–,–
CCOC(=O)c1nnn(CCCCO)c1C(=O)OCC,–,> 100,> 100,> 100,> 100,–,> 100,> 100,> 100,> 100,–,–,–,–,–,–,–,–,–
COC(=O)c1cccc(C)c1C1CN=NC12Cc1cc(C)cc(C)c1C2=O (stereo not drawn),> 100,–,> 100,> 100,> 100,> 100,–,> 100,> 100,–,–,–,–,–,–,–,–,–,–
